Data reported in ChEMBL document CHEMBL1800064, “Biaryl ethers as potent allosteric inhibitors of reverse transcriptase and its key mutant viruses: aryl substituted pyrazole as a surrogate for the pyrazolopyridine motif” (Bioorg Med Chem Lett, 2010).

Key:
[1] = biological target: Human immunodeficiency virus type 1 reverse transcriptase (Human immunodeficiency virus 1, UniProt Q72547); test: Inhibition of wild type HIV1 reverse transcriptase by SPA assay
[2] = biological target: Human immunodeficiency virus type 1 reverse transcriptase (Human immunodeficiency virus 1, UniProt Q72547, K103N); test: Inhibition of HIV1 reverse transcriptase K103N mutant by SPA assay
[3] = tested on: Human immunodeficiency virus 1; test: Antiviral activity against HIV1 R8 harboring reverse transcriptase Y181C mutant infected in human MT4 cells assessed as inhibition of viral spread in presence of 10% fetal bovine serum; format: functional; settings: Human immunodeficiency virus 1, R8, MT4; read-out: CIC95
[4] = tested on: Human immunodeficiency virus 1; test: Antiviral activity against HIV1 R8 harboring reverse transcriptase infected in human MT4 cells assessed as inhibition of viral spread in presence of 50% normal human serum; format: functional; settings: Human immunodeficiency virus 1, R8, MT4; read-out: CIC95
[5] = biological target: T1, Human immunodeficiency virus type 1 reverse transcriptase (Human immunodeficiency virus 1, UniProt Q72547, Y181C); test: Inhibition of HIV1 reverse transcriptase Y181C mutant by SPA assay
[6] = tested on: Human immunodeficiency virus 1; test: Antiviral activity against HIV1 R8 harboring wild type reverse transcriptase infected in human MT4 cells assessed as inhibition of viral spread in presence of 10% fetal bovine serum; format: functional; settings: Human immunodeficiency virus 1, R8, MT4; read-out: CIC95
[7] = tested on: Human immunodeficiency virus 1; test: Antiviral activity against HIV1 R8 harboring reverse transcriptase K103N mutant infected in human MT4 cells assessed as inhibition of viral spread in presence of 10% fetal bovine serum; format: functional; settings: Human immunodeficiency virus 1, R8, MT4; read-out: CIC95
[8] = biological target: T1, Human immunodeficiency virus type 1 reverse transcriptase; test: Inhibition of HIV1 reverse transcriptase Y181C mutant by electrochemiluminescent assay
[9] = tested on: Human immunodeficiency virus 1; test: Antiviral activity against HIV1 R8 harboring reverse transcriptase K103N/Y181C double mutant infected in human MT4 cells assessed as concentration required to inhibit >95% viral spread in presence of 10% FBS; format: functional; settings: Human immunodeficiency virus 1, R8, MT4; read-out: CIC95

Compound: N#Cc1cc(Cl)cc(Oc2cc(OCc3cc(-c4ccco4)[nH]n3)ccc2Cl)c1
- Ki [1]: 0.3 nM
- Ki [2]: 10 nM
- IC95 [3]: 833 nM
- IC95 [4]: 922 nM
- Ki [5]: 1.5 nM
- IC95 [6]: 97 nM
- IC95 [7]: 922 nM

Compound: N#Cc1cc(Cl)cc(Oc2cc(OCc3cc[nH]n3)ccc2Cl)c1
- Ki [1]: 39 nM
- Ki [2]: 179 nM
- IC95 [4]: 8300 nM
- Ki [5]: 140 nM
- IC95 [6]: 922 nM
- IC95 [7]: 8300 nM

Compound: N#Cc1cc(Cl)cc(Oc2cc(OCc3cc(-c4ccccc4)[nH]n3)ccc2Cl)c1
- Ki [1]: 0.9 nM
- Ki [2]: 2.4 nM
- IC95 [3]: 833 nM
- IC95 [4]: 924 nM
- Ki [5]: 12.5 nM
- IC95 [6]: 222 nM
- IC95 [7]: 924 nM

Compound: N#Cc1cc(Cl)cc(Oc2cc(OCc3n[nH]cc3-c3ccccc3)ccc2Cl)c1
- Ki [1]: 460 nM
- Ki [2]: > 340 nM
- IC95 [4]: > 8300 nM
- Ki [5]: > 3000 nM
- IC95 [6]: 8300 nM

Compound: N#Cc1cc(Cl)cc(Oc2cc(OCc3cc(-c4ccccc4)on3)ccc2Cl)c1
- Ki [1]: 2.6 nM
- Ki [2]: 5.5 nM
- IC95 [3]: 833 nM
- IC95 [4]: 8330 nM
- Ki [5]: 20.4 nM
- IC95 [6]: 926 nM
- IC95 [7]: 2780 nM

Compound: N#Cc1cc(Cl)cc(Oc2cc(OCc3cc(-c4ccccc4)no3)ccc2Cl)c1
- Ki [1]: 31 nM
- Ki [2]: 115 nM
- IC95 [4]: > 8300 nM
- Ki [5]: 763 nM
- IC95 [6]: > 8300 nM
- IC95 [7]: > 8330 nM

Compound: N#Cc1cc(Cl)cc(Oc2cc(OCc3cc(-c4cccs4)[nH]n3)ccc2Cl)c1
- Ki [1]: 1.6 nM
- Ki [2]: 4.6 nM
- IC95 [3]: 178 nM
- IC95 [4]: 307 nM
- Ki [5]: 49.5 nM
- IC95 [6]: 168 nM
- IC95 [7]: 922 nM

Compound: Cn1cc(-c2cc(COc3ccc(Cl)c(Oc4cc(Cl)cc(C#N)c4)c3)n[nH]2)cn1
- Ki [1]: 0.7 nM
- Ki [2]: 4.2 nM
- IC95 [3]: 278 nM
- Ki [8]: 3 nM
- IC95 [4]: 307 nM
- IC95 [6]: 32 nM
- IC95 [7]: 102 nM

Compound: N#Cc1cc(Cl)cc(Oc2cc(OCc3cc(-c4ccccn4)[nH]n3)ccc2Cl)c1
- Ki [1]: 3.2 nM
- Ki [2]: 9.6 nM
- IC95 [3]: > 833 nM
- IC95 [4]: 307 nM
- Ki [5]: 8.9 nM
- IC95 [6]: 97 nM
- IC95 [7]: 307 nM

Compound: N#Cc1cc(Cl)cc(Oc2cc(OCc3cc(-c4cccnc4)[nH]n3)ccc2Cl)c1
- Ki [1]: 1.1 nM
- Ki [2]: 5.2 nM
- IC95 [3]: 278 nM
- IC95 [4]: 307 nM
- Ki [5]: 6.7 nM
- IC95 [6]: 32 nM
- IC95 [7]: 307 nM

Compound: N#Cc1cc(Cl)cc(Oc2cc(OCc3cc(-c4cc[n+]([O-])cc4)[nH]n3)ccc2Cl)c1
- Ki [1]: 5.3 nM
- Ki [2]: 21 nM
- IC95 [3]: 500 nM
- IC95 [4]: 307 nM
- Ki [5]: 46 nM
- IC95 [6]: 44 nM
- IC95 [7]: 307 nM

Compound: N#Cc1ccc(-c2cc(COc3ccc(Cl)c(Oc4cc(Cl)cc(C#N)c4)c3)n[nH]2)cc1
- Ki [1]: 0.7 nM
- Ki [2]: 3.6 nM
- Ki [8]: 12 nM
- IC95 [4]: 922 nM
- IC95 [6]: 34 nM
- IC95 [7]: 307 nM

Compound: N#Cc1cc(Cl)cc(Oc2cc(OCc3n[nH]c(-c4ccccn4)c3Cl)ccc2Cl)c1
- Ki [1]: 0.4 nM
- Ki [2]: 0.5 nM
- Ki [8]: 0.6 nM
- IC95 [4]: 922 nM
- IC95 [6]: 922 nM
- IC95 [7]: 2770 nM

Compound: N#Cc1cc(Cl)cc(Oc2cc(OCc3n[nH]c(-c4ccncc4)c3Cl)ccc2Cl)c1
- Ki [1]: 0.5 nM
- Ki [2]: 0.7 nM
- IC95 [3]: 278 nM
- Ki [8]: 0.5 nM
- IC95 [4]: 307 nM
- IC95 [6]: 97 nM
- IC95 [7]: 102 nM

Compound: N#Cc1cc(Cl)cc(Oc2cc(OCc3n[nH]c(-c4ccc(-c5nnn[nH]5)cc4)c3Cl)ccc2Cl)c1
- Ki [1]: 0.3 nM
- Ki [2]: 0.7 nM
- Ki [8]: 0.6 nM
- IC95 [4]: > 8330 nM
- IC95 [6]: 2780 nM
- IC95 [7]: 8330 nM

Compound: N#Cc1cc(Cl)cc(Oc2cc(OCc3cn(-c4ccccc4)nn3)ccc2Cl)c1
- Ki [1]: 68 nM
- Ki [2]: 946 nM

Compound: N#Cc1cc(Cl)cc(Oc2cc(OCc3nc(-c4ccccc4)no3)ccc2Cl)c1
- Ki [1]: 15 nM
- Ki [2]: 56 nM

Compound: N#Cc1cc(Cl)cc(Oc2cc(OCc3nc(-c4ccccn4)no3)ccc2Cl)c1
- Ki [1]: 29 nM
- Ki [2]: 69 nM
- IC95 [4]: > 8300 nM
- IC95 [6]: > 8300 nM

Compound: COc1ccc(-c2noc(COc3ccc(Cl)c(Oc4cc(Cl)cc(C#N)c4)c3)n2)cc1
- Ki [1]: 2.1 nM
- Ki [2]: 30 nM
- IC95 [4]: > 8300 nM
- IC95 [6]: > 8300 nM

Compound: COc1ccc(-c2nnc(COc3ccc(Cl)c(Oc4cc(Cl)cc(C#N)c4)c3)o2)cc1
- Ki [1]: 5.2 nM
- Ki [2]: 9.3 nM
- IC95 [4]: 926 nM
- IC95 [6]: 926 nM

Compound: N#Cc1cc(Cl)cc(Oc2cc(OCc3nc(-c4ccc(Cl)cc4)no3)ccc2Cl)c1
- Ki [1]: 31 nM
- Ki [2]: 130 nM
- IC95 [4]: > 8300 nM
- IC95 [6]: > 8300 nM

Compound: N#Cc1cc(Cl)cc(Oc2cc(OCc3nnc(-c4ccc(Cl)cc4)o3)ccc2Cl)c1
- Ki [1]: 4.9 nM
- Ki [2]: 11 nM
- IC95 [4]: 830 nM
- IC95 [6]: 2780 nM

Compound: N#Cc1cc(Cl)cc(Oc2cc(OCc3ncc(-c4ccc(Cl)cc4)o3)ccc2Cl)c1
- Ki [1]: 2.1 nM
- Ki [2]: 4.4 nM
- IC95 [4]: 277 nM
- IC95 [6]: 926 nM

Compound: O=C1Nc2ccc(Cl)cc2[C@@](C#CC2CC2)(C(F)(F)F)O1 [EFAVIRENZ]
- IC95 [3]: 8 nM
- IC95 [4]: 38 nM
- IC95 [6]: 4.3 nM
- IC95 [7]: 232 nM
- IC95 [9]: 272 nM
